Results taken from patent US11072588B2, “Barbituric acid derivatives comprising cationic and lipophilic groups” (UNIVERSITETET I TROMSØ—NORGES ARKTISKE UNIVERSITET, priority 2017, dated 2021).
≈ marks a conversion by molar mass, not a printed value. Like-named read-outs stand apart in the source and are kept apart here.

How the values were obtained:
[1] = tested on: Staphylococcus aureus ATCC 9144; experiment: MIC assay, antibiotic susceptible reference strain; type: cell-based; details: Staphylococcus aureus, ATCC9144, read-out: Antimicrobial activity (MIC) S. a
Protocol: (§1) Working solutions of the test derivatives were prepared with up to 100% DMSO and stored at −20° C. If necessary, the solutions were heated to 40-80° C. before testing to facilitate complete dissolution. Double-distilled water was used in all dilutions prepared. […] A microdilution susceptibility test was used for MIC determination according to Clinical and Laboratory Standards Institute, “Methods for Dilution Antimicrobial Sisceptibility Tests for Bacteria That Graw Aerobically”, Approved Standard M07-A9, edition 2012, with modifications as described by Igumnova et al (Bioorg Med Chem, 2016, 24 (22), 5884-5894).
(§2) Briefly, the bacterial inoculum was adjusted to approximately 2.5-3×10^4 cells/mL in Mueller-Hinton broth (MHB, Difco Laboratories, USA), and incubated in a ratio of 1:1 with test derivatives in polystyrene 96-well flat-bottom microplates (NUNC, Roskilde, Denmark). Positive growth control (without test derivatives) and negative control (without bacteria) were included. The reference antibiotic was oxytetracycline hydrochloride (Sigma Aldrich, Saint Louis, Mo., USA). The microplates were incubated in an EnVision microplate reader (Perkin-Elmer, Turku, Finland) placed in an incubator set to 35° C. for 48 h. The MIC value was defined as the lowest concentration of derivative resulting in no bacterial growth as determined by OD600 measurement. All derivatives were tested in three parallels.

[2] = tested on: Corynebacterium glutamicum ATCC 13032; experiment: MIC assay, antibiotic susceptible reference strain; type: cell-based; details: Corynebacterium glutamicum, ATCC13032, read-out: Antimicrobial activity (MIC) C. g
Protocol: as §1, §2

[3] = tested on: Pseudomonas aeruginosa PA01, DSM 19880 (ATCC 15692); experiment: MIC assay, antibiotic susceptible reference strain; type: cell-based; details: Pseudomonas aeruginosa, read-out: Antimicrobial activity (MIC) P. a
Protocol: as §1, §2

[4] = tested on: Escherichia coli ATCC 25922; experiment: MIC assay, antibiotic susceptible reference strain; type: cell-based; details: Escherichia coli, ATCC25922, read-out: Antimicrobial activity (MIC) E. c
Protocol: as §1, §2

A. baumanii K63-58 = experiment: MIC, multi-resistant clinical isolate; type: cell-based, Acinetobacter baumannii; details: A. baumanii K63-58, resistant to colistin; for MIC: Acinetobacter baumannii, K6358, 24 h, read-out: Antimicrobial activity (MIC); for selectivity index (EC50/MIC): RBC EC50 / MIC
[5] = tested on: human metastatic melanoma (A2058, ATCC CRL-11147) cells; experiment: Anti-cancer activity against A2058 cells; type: cell-based; details: A2058, read-out: Anti-cancer IC50
Protocol: Cytotoxicity of the test compounds was evaluated after 72 hour exposure to human metastatic melanoma (A2058, ATCC CRL-11147) cells.
A2058 cells were grown overnight (2,000 cells/well), and then incubated with the test compounds (range of concentrations) diluted in MEM Earle's supplemented with gentamycin (10 μg/mL), non-essential amino acids (1%), sodium pyruvate (1 mM), L-alanyl-Lglutamine (2 mM), but without FBS (total volume was 100 μl) for […]. Ten μL of CellTiter 96® AQueous One Solution Reagent (Promega, Madison, Wis., USA) was added, and the plates were then further incubated for 1 hour.
Absorbance was measured at 485 nm in a DTX 880 Multimode Detector. Results were calculated as % survival compared to negative (assay media) and positive (Triton X-100; Sigma-Aldrich) controls.

E. coli 50579417 = experiment: MIC, multi-resistant clinical isolate; type: cell-based, Escherichia coli; details: for MIC: Escherichia coli, read-out: Antimicrobial activity (MIC); for selectivity index (EC50/MIC): RBC EC50 / MIC
Protocol: as §1, §2
(§3) The MIC was determined as explained above with some exceptions; working solutions of test derivatives were prepared from concentrated DMSO stocks stored at room temperature, the density of the bacterial inoculum was increased 40× to 1-1.2×10^6 cells/mL, enterococci were incubated in Brain Heart Infusion broth (BHIB, Difco Laboratories, USA), the microplates were incubated for 24 h, and the derivatives were tested in four parallels.

E. coli 50676002 = experiment: MIC, multi-resistant clinical isolate; type: cell-based, Escherichia coli; details: for selectivity index (EC50/MIC): RBC EC50 / MIC
Protocol: as §1, §2, §3

E. coli 50639799 = experiment: MIC, multi-resistant clinical isolate; type: cell-based, Escherichia coli; details: for MIC: Escherichia coli, read-out: Antimicrobial activity (MIC); for selectivity index (EC50/MIC): RBC EC50 / MIC
Protocol: as §1, §2, §3

E. coli 50857972 = experiment: MIC, multi-resistant clinical isolate; type: cell-based, Escherichia coli; details: for MIC: Escherichia coli, read-out: Antimicrobial activity (MIC); for selectivity index (EC50/MIC): RBC EC50 / MIC
Protocol: as §1, §2, §3

E. coli 50739822 = experiment: MIC, multi-resistant clinical isolate; type: cell-based, Escherichia coli; details: for MIC: Escherichia coli, read-out: Antimicrobial activity (MIC); for selectivity index (EC50/MIC): RBC EC50 / MIC
Protocol: as §1, §2, §3

P. aeruginosa 50692520 = experiment: MIC, multi-resistant clinical isolate; type: cell-based, Pseudomonas aeruginosa; details: for MIC: Pseudomonas aeruginosa, read-out: Antimicrobial activity (MIC)
Protocol: as §1, §2, §3

P. aeruginosa K34-7 = experiment: MIC, multi-resistant clinical isolate; type: cell-based, Pseudomonas aeruginosa; details: for MIC: Pseudomonas aeruginosa, K347, read-out: Antimicrobial activity (MIC)
Protocol: as §1, §2, §3

P. aeruginosa K34-73 = experiment: MIC, multi-resistant clinical isolate; type: cell-based, Pseudomonas aeruginosa; details: for MIC: Pseudomonas aeruginosa
Protocol: as §1, §2, §3

P. aeruginosa 50692172 = experiment: MIC, multi-resistant clinical isolate; type: cell-based, Pseudomonas aeruginosa; details: for MIC: Pseudomonas aeruginosa, read-out: Antimicrobial activity (MIC)
Protocol: as §1, §2, §3

P. aeruginosa K44-24 = experiment: MIC, multi-resistant clinical isolate; type: cell-based, Pseudomonas aeruginosa; details: for MIC: Pseudomonas aeruginosa, K4424, read-out: Antimicrobial activity (MIC)
Protocol: as §1, §2, §3

K. pneumoniae 50667959 = experiment: MIC, multi-resistant clinical isolate; type: cell-based, Klebsiella pneumoniae; details: for MIC: Klebsiella pneumoniae, read-out: Antimicrobial activity (MIC); for selectivity index (EC50/MIC): RBC EC50 / MIC
Protocol: as §1, §2, §3

K. pneumoniae K66-45 = experiment: MIC, multi-resistant clinical isolate; type: cell-based, Klebsiella pneumoniae; details: for MIC: Klebsiella pneumoniae, K6645, read-out: Antimicrobial activity (MIC); for selectivity index (EC50/MIC): RBC EC50 / MIC, K. pneumoniae K66-45
Protocol: as §1, §2, §3

K. pneumoniae K47-25 = experiment: MIC, multi-resistant clinical isolate; type: cell-based, Klebsiella pneumoniae; details: for MIC: Klebsiella pneumoniae, K4725, 24 h, read-out: Antimicrobial activity (MIC)
Protocol: as §1, §2, §3

SMILES	MIC [1] [µg/mL]	MIC [2] [µg/mL]	MIC [3] [µg/mL]	MIC [4] [µg/mL]	MIC (A. baumanii K63-58) [µg/mL]	selectivity index (EC50/MIC) (A. baumanii K63-58)	IC50 [5] [µg/mL]	MIC (E. coli 50579417) [µg/mL]	selectivity index (EC50/MIC) (E. coli 50579417)	selectivity index (EC50/MIC) (E. coli 50676002; E. coli 50676002)	MIC (E. coli 50639799) [µg/mL]	selectivity index (EC50/MIC) (E. coli 50639799)	MIC (E. coli 50857972) [µg/mL]	selectivity index (EC50/MIC) (E. coli 50857972)	MIC (E. coli 50739822) [µg/mL]	selectivity index (EC50/MIC) (E. coli 50739822)	MIC (P. aeruginosa 50692520) [µg/mL]	MIC (P. aeruginosa K34-7) [µg/mL]	MIC (P. aeruginosa 50692172) [µg/mL]	MIC (P. aeruginosa K44-24) [µg/mL]	also measured
CC(C)(C)c1cc(CC2(Cc3cc(C(C)(C)C)cc(C(C)(C)C)c3)C(=O)N(CCCCNC(=N)N)C(=O)N(CCCCNC(=N)N)C2=O)cc(C(C)(C)C)c1 [8(iii), 1,1′-(4,4′-(5,5-bis(3,5-di-tert-butylbenzyl)-2,4,6-trioxodihydropyrimidine-1,3(2H,4H)-diyl)bis(butane-4,1-diyl))-diguanidine]	1 (≈ 1.32 µM)	0.25 (≈ 0.329 µM)	4 (≈ 5.27 µM)	4 (≈ 5.27 µM)	4 (≈ 5.27 µM)	(<1)	33 (≈ 43.5 µM)	16 (≈ 21.1 µM)	(<0.25)	(<0.25)	8 (≈ 10.5 µM)	(<0.5)	8 (≈ 10.5 µM)	(<0.5)	8 (≈ 10.5 µM)	(<0.5)	16 (≈ 21.1 µM)	16 (≈ 21.1 µM)	16 (≈ 21.1 µM)	16 (≈ 21.1 µM)	MIC (E. coli 50676002; Escherichia coli, E. coli 50676002, read-out: Antimicrobial activity (MIC)): 16 µg/mL (≈ 21.1 µM); selectivity index (EC50/MIC) (P. aeruginosa 50692520; RBC EC50 / MIC): (<0.25); selectivity index (EC50/MIC) (P. aeruginosa K34-7; RBC EC50 / MIC, P. aeruginosa K34-7): (<0.25); MIC (P. aeruginosa K34-73; K3473, P. aeruginosa K34-73, read-out: Antimicrobial activity (MIC)): 8 µg/mL (≈ 10.5 µM); selectivity index (EC50/MIC) (P. aeruginosa K34-73; RBC EC50 / MIC, P. aeruginosa K34-73): (<0.5); selectivity index (EC50/MIC) (P. aeruginosa 50692172; RBC EC50 / MIC): (<0.25); selectivity index (EC50/MIC) (P. aeruginosa K44-24; RBC EC50 / MIC): (<0.25); MIC (K. pneumoniae 50667959): 8 µg/mL (≈ 10.5 µM); selectivity index (EC50/MIC) (K. pneumoniae 50667959): (<0.5); MIC (K. pneumoniae K66-45): 8 µg/mL (≈ 10.5 µM); selectivity index (EC50/MIC) (K. pneumoniae K66-45): (<0.5); MIC (K. pneumoniae K47-25; K. pneumoniae K47-25, resistant to colistin): 16 µg/mL (≈ 21.1 µM); selectivity index (EC50/MIC) (K. pneumoniae K47-25; RBC EC50 / MIC, K. pneumoniae K47-25, resistant to colistin): (<0.25)
CC(C)(C)c1ccc(CC2(Cc3ccc(C(C)(C)C)cc3)C(=O)N(CCCCN)C(=O)N(CCCCN)C2=O)cc1 [Compound 7(i), 1,3-bis(4-aminobutyl)-5,5-bis(4-tertbutylbenzyl) pyrimidin-2,4,6(1H,3H,5H)-trione]	4 (≈ 7.11 µM)	1 (≈ 1.78 µM)	8 (≈ 14.2 µM)	4 (≈ 7.11 µM)	16 (≈ 28.4 µM)	(9)	1 (≈ 1.78 µM)	8 (≈ 14.2 µM)	(18)	(36)	8 (≈ 14.2 µM)	(18)	4 (≈ 7.11 µM)	(36)	8 (≈ 14.2 µM)	(18)	> 32	> 32	> 32	> 32	MIC (E. coli 50676002; Escherichia coli, 50676002, read-out: Antimicrobial activity (MIC)): 4 µg/mL (≈ 7.11 µM); MIC (P. aeruginosa K34-73; K3473, read-out: Antimicrobial activity (MIC)): > 32 µg/mL; MIC (K. pneumoniae 50667959): 32 µg/mL (≈ 56.9 µM); selectivity index (EC50/MIC) (K. pneumoniae 50667959): (4); MIC (K. pneumoniae K66-45): 32 µg/mL (≈ 56.9 µM); selectivity index (EC50/MIC) (K. pneumoniae K66-45): (4); MIC (K. pneumoniae K47-25): > 32 µg/mL
